# Patent publication US20040235883A1, “Alkyl-substituted imidazopyridines for the treatment of gastrointestinal disorders” (priority 2001, published 2004)
# Test system: pentagastrin-stimulated acid secretion of the perfused rat stomach
# Experiment: Secretion-inhibiting action on the perfused rat stomach (pentagastrin-stimulated acid secretion, intraduodenal administration in vivo)
# Settings: anesthetized CD rat, female, pentagastrin 1 μg/kg i.v. infusion
# From the text: Testing of the Secretion-Inhibiting Action on the Perfused Rat Stomach
# In Table A which follows, the influence of the compounds according to the invention on the pentagastrin-stimulated acid secretion of the perfused rat stomach after intraduodenal administration in vivo is shown.
# The abdomen of anesthetized rats (CD rat, female, 200-250 g; 1.5 g/kg i.m. urethane) was opened after tracheotomy by a median upper abdominal incision and a PVC catheter was fixed transorally in the esophagus and another via the pylorus such that the ends of the tube just projected into the gastric lumen. The catheter leading from the pylorus led outward into the right abdominal wall through a side opening.
# After thorough rinsing (about 50-100 ml), warm (37° C.) physiological NaCl solution was continuously passed through the stomach (0.5 ml/min, pH 6.8-6.9; Braun-Unita I). The pH (pH meter 632, glass electrode EA 147; φ=5 mm, Metrohm) and, by titration with a freshly prepared 0.01 N NaOH solution to pH 7 (Dosimat 665 Metrohm), the secreted HCl were determined in the effluent in each case collected at an interval of 15 minutes.
# The gastric secretion was stimulated by continuous infusion of […] (=1.65 ml/h) of i.v. pentagastrin (left femoral vein) about 30 min after the end of the operation (i.e. after determination of 2 preliminary fractions). […]
Compound,Inhibition of acid secretion (%) (dose 1 μmol/kg i.d.),Inhibition of acid secretion (%) (dose 0.3 μmol/kg i.d.)
"Cc1nc2c3c(ccn2c1C)[C@H](C)[C@H](O)CN3 [Example 8, (7S,8S,9R)-8-Hydroxy-2,3,7-trimethyl-7,8,9,10-tetrahydroimidazo[1.2-h][1.7]naphthyridine]",93,–
"(7S,8S,9R)-7-Cyanomethyl-8-hydroxy-2,3-dimethyl-7,8,9,10-tetrahydroimidazo[1.2h]-[1.7]naphthyridine [Example 9]",–,52
